{"source": "patent US20140242093A1", "about": "“METHODS AND COMPOSITIONS FOR MODULATING THE INNATE IMMUNE RESPONSE AND/OR MYOGENESIS IN A MAMMALIAN SUBJECT” (FRED HUTCHINSON CANCER RESEARCH CENTER, priority 2011, published 2014)", "key": {"[1]": {"tested_on": "HCT116, primary dendritic cells, JJ and FS", "experiment": "Real-time PCR of PRAMEF1 in transduced HCT116, primary dendritic cells, JJ and FS cell lines", "assay_type": "cell-based, human", "protocol": "HCT116 cells were infected with a control lenti-GFP or with lenti-DUX4-fl and the abundance of PRAMEF1 mRNA measured relative to a constitutively expressed gene, RPL13a.\nPrimary dendritic cells and the tumor cell lines derived from patients with chondrosarcomas designated JJ and FS (described in Jagasia, et al., 1996, supra) were transduced with lentiviral constructs expressing a control gene, green fluorescent protein (GFP), or DUX4fl. PRAMEF1 mRNA was measured by real-time PCR relative to a constitutively expressed control, RPL13a."}, "[2]": {"tested_on": "cultured control skeletal muscle", "experiment": "RT-PCR validation of microarray gene targets", "assay_type": "cell-based, human", "details": "FIG. 1", "protocol": "RNA was collected from cultured control skeletal muscle either transduced with a DUX4-fl expressing lentivirus (+) or not transduced (−). RPL13A was used as an internal standard. Total RNA was treated with DNase using TURBO DNA-free kit (Ambion) according to manufacturer's protocol. One μg of DNase-treated RNA was reverse transcribed to first strand cDNA with SuperScript III and anchored oligo dT (Invitrogen) at 52° C. for 1 h. Residual RNA was digested with RNase H at 37° C. for 20 min. cDNA was used in various PCR and real-time PCR reactions with primers listed below.\nThe primers shown below were designed to span exon-exon junctions where possible. Primers from select genes were also used in real-time PCR reactions to examine endogenous expression of targets in FSHD versus control samples described separately."}, "[3]": {"tested_on": "Cultured human muscle cells (54-1)", "experiment": "Conditioned media from lenti-DUX4-fl cells on lenti-GFP transduced cells, RT-PCR of IFIH1 and DEFB103A/B", "assay_type": "cell-based", "protocol": "It was determined that DEFB103A (SEQ ID NO:49) and DEFB103B (SEQ ID NO:107), each encoding the polypeptide DEFB103A/B set forth as SEQ ID NO:178, are both activated by lenti-DUX4-fl and not by lenti-DUX4-s or lenti-GFP. These represent transcripts from a duplicated beta-defensin 3 gene, which can function as a suppressor of inflammation. As a secreted protein, DEFB103A/B (SEQ ID NO:178) has the potential to suppress the innate immune response in cells infected with lenti-GFP. As an initial step toward testing this, the inventors transduced cells with lenti-DUX4-fl or nothing for 12 hrs, washed extensively and replaced the culture media, then after an additional 12 hrs transferred the conditioned media to cells infected 24 hrs earlier with lenti-GFP.\nCultured human muscle cells (54-1) were transduced with nothing (first lane panels A and B), lenti-DUX4-fl @ approximately MOI=10 (lane 2), lenti-DUX4-fl MOI ˜1 (lane 3), lenti-GFP MOI ˜10 (lane 4), lenti-GFP transduced cells exposed to conditioned media from lane 2 cells (lane 5), lenti-GFP transduced cells exposed to conditioned media from lane 3 cells (lane 6), lenti-GFP transduced cells exposed to media from lane 5 cells that was filtered through a 35 kD cut-off filter. The conditioned media from the lenti-DUX4 transduced cells suppresses the IFIH1 induction by lenti-GFP (Panel A)."}, "[4]": {"tested_on": "Cultured control human myoblasts", "experiment": "Beta-defensin 3 and innate immune response, real-time qPCR of IFIH1, ISG20, DEFB103", "assay_type": "cell-based", "protocol": "Cultured control human myoblasts were grown to 80% confluence and infected with equivalent titers of lenti-GFP, lenti-DUX4-s and lenti-DUX4-fl in growth media supplemented with 8 μg/mL polybrene. Expression of innate immune responsive genes including IFIH1 (MDA5), ISG20 and DEFB103 were assessed by real-time qPCR as previously described at 24 hours (primer sequences below). For conditioned media, cells were infected with lenti-DUX4-fl for 12 hours, thoroughly washed 3 times with PBS and switched to fresh growth media to condition for 12 hours. Control conditioned media was produced from cells not infected with any lentivirus. Myoblasts were infected with lenti-GFP in either control conditioned media, lenti-DUX4-fl conditioned media or regular growth media supplemented with 1 μM human β-defensin 3 (Peptides International, Louisville, Ky.). Expression of innate immune responsive genes were examined after 24 hours."}, "[5]": {"tested_on": "normal skeletal muscle cells", "experiment": "RT-PCR of cancer testis antigens in transduced normal skeletal muscle cells", "assay_type": "cell-based, human", "details": "RT-PCR vs lenti-GFP", "excerpt": "The results were normalized to an internal control standard of either 18S or GAPDH."}, "[6]": {"tested_on": "cultured human skeletal muscle cells", "details": "cited from earlier work"}, "[7]": {"tested_on": "human rhabdomyosarcoma cell line RD", "experiment": "Luciferase reporter assay with DUX4 binding sites", "assay_type": "cell-based", "protocol": "The DUX4 binding site in the ZSCAN4 pGL3-promoter construct was either reversed in orientation (as shown in FIG. 3D) or moved downstream of the reporter gene (as shown in FIG. 3E). […] Transfections and luciferase assays were done as in main methods. Data are given as the averages±SD of triplicates.\nTransient DNA transfections of RD cells were performed using SuperFect (Qiagen) according to manufacturer specifications. Briefly, 3×10^5 cells were seeded per 35 mm plate the day prior to transfection. […] Cells were lysed 24 h post-transfection in Passive Lysis Buffer (Promega). Luciferase activities were quantified using reagents from the Dual-Luciferase Reporter Assay System (Promega) following manufacturer's instructions. Light emission was measured using BioTek Synergy2 luminometer. Luciferase data are given as the averages±SD of at least triplicates."}}, "data": [{"substance": "DUX4-fl: full-length DUX4 protein (SEQ ID NO:110), expressed from lentiviral or pCS2 vectors or in vitro translated", "values": [{"measurement": "PRAMEF1 gene expression", "setting": "[1]", "result": "robust activation of the PRAMEF1 gene"}, {"measurement": "number of DUX4-fl regulated genes with differential expression validated by RT-PCR", "setting": "[2]", "result": 15, "unit": "genes"}, {"measurement": "expression of DEFB103A/B", "setting": "[3]; RT-PCR", "result": "induces expression of DEFB103A/B"}, {"measurement": "activation of IFIH1 by the construct", "setting": "[3]; qRT-PCR, no conditioned medium", "result": "did not"}, {"measurement": "expression of DEFB103A/B (β-defensin 3)", "setting": "[4]; FIG. 7B", "result": "robustly induced expression of DEFB103A/B"}, {"measurement": "induction of the innate immune response in myoblasts", "setting": "[4]; RT-qPCR, similar titers, FIG. 7A", "result": "did not"}, {"measurement": "induction of cancer testis antigens BAGE, MAGEA4, MAGEA9, SSX1, SSX2, SSX4 and a PRAME family member", "setting": "[5]", "result": "over 2 fold"}, {"measurement": "toxicity of forced over-expression", "setting": "[6]", "result": "toxic to cells, inducing apoptotic cell death"}, {"measurement": "luciferase reporter with DUX4 binding sites from LTRs at a MaLR THE1D element", "setting": "[7]", "result": "activated transcription of a luciferase reporter"}, {"measurement": "luciferase expression from pGL3-promoter reporter with 31 bp DUX4 binding site", "setting": "[7]; TRIM48 or ZSCAN4 site, co-transfection in RD cells", "result": "significantly induced luciferase expression"}]}]}
